The values that follow come from US8084456B2, “Pyrazine-based tubulin inhibitors” (YM Biosciences Australia Pty Ltd, priority 2002, dated 2011).

One assay deals with Tubulin. Put plainly: Tubulin assay (turbidometric microtubule assembly). The conditions noted are these: at 50 μM, absorbance at 340 nm, 37° C. Format: biochemical. As for the experimental part: Turbidometric assays of microtubule assembly were performed by incubating microtubule protein in cuvettes at 37° C. in a thermostatically controlled spectrophotometer measuring the change in absorbance at 340 nm over time. The microtubule protein was incubated with the each test compound at 0° C. and polymerisation was initiated by addition of 1 mM GTP, prior to heating to 37° C.

Assay [1] relates to PC3 (Prostate Cancer) cells. Kind of assay: Cellular growth assay (MTT), PC3. The format is cell-based. The conditions noted are these: Homo sapiens, PC-3, 40 hr incubation, read-out: PC3 (inhibition of 50% of cellular growth). As for the experimental part: (§1) K562 (Chronic Myeloid Leukemia), PC3 (Prostate Cancer), and DU145 (Prostate Cancer) were obtained from the American Type Culture Collection (ATCC). K562 was grown in RPMI, with 10% FBS with Glutamx added. DU145 cells were cultured in DMED, with 10% FBS and Glutamx and MEM non-essential amino acids added. PC3 cells were grown in F12K medium, with 10% FBS and Glutamx and MEM non-essential amino acids added. All cells were grown at 37° C. in 5% CO2.

A further assay has as its target TelJak3 (Homo sapiens, UniProt P52333). Put plainly: Cellular growth assay (MTT), BaF3 TEL/JAK3 cells. The format is cell-based. Particulars: 40 hr incubation, read-out: TelJak3 (inhibition of 50% of cellular growth).
For another assay, the target named is TelJak2 (Homo sapiens, UniProt O60674). Put plainly: Cellular growth assay (MTT), BaF3 TEL/JAK2 cells. The conditions noted are these: 40 hr incubation, read-out: TelJak2 (inhibition of 50% of cellular growth). The format is cell-based.
For assay [2], the system named is K562 (Chronic Myeloid Leukemia) cells. Kind of assay: Cellular growth assay (MTT), K562. Format: cell-based. The conditions noted are these: Homo sapiens, 40 hr incubation, read-out: K562 (inhibition of 50% of cellular growth). On the procedure:
as §1

Assay [3] deals with DU145 (Prostate Cancer) cells. Kind of assay: Cellular growth assay (MTT), DU145. The format is cell-based. Particulars: Homo sapiens, DU-145, 40 hr incubation, read-out: DU145 (inhibition of 50% of cellular growth). As for the experimental part: as §1

TelJak3, sequence (P52333 with tags, fused parts or gaps): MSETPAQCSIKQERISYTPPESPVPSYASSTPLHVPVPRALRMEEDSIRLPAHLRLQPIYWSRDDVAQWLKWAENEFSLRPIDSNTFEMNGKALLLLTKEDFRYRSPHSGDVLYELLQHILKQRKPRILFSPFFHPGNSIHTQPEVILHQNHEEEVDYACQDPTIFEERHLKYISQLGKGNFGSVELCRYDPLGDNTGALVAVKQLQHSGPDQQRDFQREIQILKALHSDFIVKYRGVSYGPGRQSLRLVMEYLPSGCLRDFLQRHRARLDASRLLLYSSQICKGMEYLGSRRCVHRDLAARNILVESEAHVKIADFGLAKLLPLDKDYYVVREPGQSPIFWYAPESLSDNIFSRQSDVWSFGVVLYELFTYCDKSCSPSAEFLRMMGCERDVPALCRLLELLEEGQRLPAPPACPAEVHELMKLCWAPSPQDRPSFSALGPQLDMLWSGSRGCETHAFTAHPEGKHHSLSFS
TelJak2, sequence (O60674 with tags, fused parts or gaps): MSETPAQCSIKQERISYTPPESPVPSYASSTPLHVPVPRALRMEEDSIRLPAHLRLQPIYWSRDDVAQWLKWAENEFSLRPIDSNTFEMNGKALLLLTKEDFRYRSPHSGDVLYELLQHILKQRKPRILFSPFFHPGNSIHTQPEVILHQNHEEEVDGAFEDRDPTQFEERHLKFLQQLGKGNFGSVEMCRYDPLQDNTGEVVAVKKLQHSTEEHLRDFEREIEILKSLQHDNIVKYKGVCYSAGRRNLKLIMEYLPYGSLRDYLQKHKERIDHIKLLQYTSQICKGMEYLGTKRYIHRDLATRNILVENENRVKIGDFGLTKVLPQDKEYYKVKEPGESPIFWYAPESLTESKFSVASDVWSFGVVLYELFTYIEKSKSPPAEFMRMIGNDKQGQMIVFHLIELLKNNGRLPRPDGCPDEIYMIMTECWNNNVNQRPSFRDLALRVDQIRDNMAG

Consider `CCCC(Nc1cncc(-c2ccc(O)c(OC)c2)n1)c1ccccc1` (stereo not drawn), for which the “Tubulin (inhibition of tubulin polymerisation)” value in the assay on Tubulin was “+ (inhibited tubulin polymerisation by greater than 50% at 50 μM)”. The IC50 (in assay [1]; on TelJak3; on TelJak2; in assay [2]; in assay [3]) was at most 20 µM each time.

Regarding `CCCC(Nc1cncc(-c2ccc(O)c(OC)c2)n1)c1ccc(F)cc1` (stereo not drawn), the “Tubulin (inhibition of tubulin polymerisation)” value in the assay on Tubulin is given as “+ (inhibited tubulin polymerisation by greater than 50% at 50 μM)”. Also, the IC50 is over 20 µM in assay [1]; at most 20 µM on TelJak3; at most 20 µM on TelJak2; at most 20 µM in assay [2]; at most 20 µM in assay [3].

Take `CCCC(Nc1cncc(-c2ccc(O)c(OC)c2)n1)c1cc(OC)cc(OC)c1` (stereo not drawn): in the assay on Tubulin, the “Tubulin (inhibition of tubulin polymerisation)” value is recorded as “+ (inhibited tubulin polymerisation by greater than 50% at 50 μM)”. The IC50 (in assay [1]; on TelJak3; at TelJak2; in assay [2]; in assay [3]) was at most 20 µM each time.

In the case of `CCCC(Nc1cncc(-c2ccc(OC)c(OC)c2)n1)c1ccccc1` (stereo not drawn), in the assay with Tubulin, the “Tubulin (inhibition of tubulin polymerisation)” value was “+ (inhibited tubulin polymerisation by greater than 50% at 50 μM)”. The IC50 (in assay [1]; on TelJak3; on TelJak2; in assay [2]; in assay [3]) was at most 20 µM in each case.

Regarding `CCCC(Nc1cncc(-c2ccc3c(c2)OCO3)n1)c1ccccc1` (stereo not drawn), in the assay with Tubulin, the “Tubulin (inhibition of tubulin polymerisation)” value was “+ (inhibited tubulin polymerisation by greater than 50% at 50 μM)”. Besides, the IC50 (in assay [1]; on TelJak3; at TelJak2; in assay [2]; in assay [3]) was at most 20 µM in each case.

Turning to `CCCC(Nc1cncc(-c2ccc(O)c(OC)c2)n1)c1c(F)cccc1Cl` (stereo not drawn), the “Tubulin (inhibition of tubulin polymerisation)” value in the assay with Tubulin is recorded as “+ (inhibited tubulin polymerisation by greater than 50% at 50 μM)”. Further, the IC50 (in assay [1]; on TelJak3; on TelJak2; in assay [2]; in assay [3]) was at most 20 µM throughout.

Regarding `CCCC(Nc1cncc(-c2ccc(O)c(OC)c2)n1)c1ccc(C(F)(F)F)cc1` (stereo not drawn), the “Tubulin (inhibition of tubulin polymerisation)” value with Tubulin is on record as “− (did not inhibit tubulin polymerisation by 50% at 50 μM)”. The IC50 (in assay [1]; at TelJak3; on TelJak2; in assay [2]; in assay [3]) was over 20 µM in each case.

With `CCCC(Nc1cncc(-c2ccc(O)c(OC)c2)n1)c1cccnc1` (stereo not drawn), the “Tubulin (inhibition of tubulin polymerisation)” value in the assay with Tubulin was “+ (inhibited tubulin polymerisation by greater than 50% at 50 μM)”. Besides, the IC50 (in assay [1]; at TelJak3; on TelJak2; in assay [2]; in assay [3]) was at most 20 µM throughout.

For `CCC[C@H](Nc1cncc(-c2ccc(O)c(OC)c2)n1)c1cccc(F)c1`, in the assay on Tubulin, the “Tubulin (inhibition of tubulin polymerisation)” value is “+ (inhibited tubulin polymerisation by greater than 50% at 50 μM)”. For the same molecule, the IC50 (in assay [1]; at TelJak3; at TelJak2; in assay [2]; in assay [3]) was at most 20 µM throughout.

As to `CCCC(Nc1cncc(-c2ccc(O)c(OC)c2)n1)c1cccc(C(F)(F)F)c1` (stereo not drawn), the “Tubulin (inhibition of tubulin polymerisation)” value with Tubulin is “+ (inhibited tubulin polymerisation by greater than 50% at 50 μM)”. In addition, the IC50 (in assay [1]; at TelJak3; at TelJak2; in assay [2]; in assay [3]) was at most 20 µM throughout.

As to `COc1cc(-c2cncc(NC(CCN3CCN(C)CC3)c3ccccc3)n2)ccc1O` (stereo not drawn), the “Tubulin (inhibition of tubulin polymerisation)” value in the assay on Tubulin is “+ (inhibited tubulin polymerisation by greater than 50% at 50 μM)”. In addition, the IC50 (in assay [1]; on TelJak3; at TelJak2; in assay [2]; in assay [3]) was at most 20 µM in each case.
